The values that follow come from patent US20070059319A1, “Methods of screening for immuno-adjuvants and vaccines comprising anti-microtubule immuno-adjuvants” (Caliper Life Sciences, Inc., priority 2005, published 2007).

The subject of the assay is human monocytes (THP-1 cell line). Briefly: multiplex functional cell-based HTS assay (5-plex): expression of co-stimulatory molecules and cytokines by THP-1 monocytes. Further details: IL-8 / RANTES / TNFα: unit not given here. As to conditions: THP-1 cells incubated overnight with 10^-5M test compound; for IL-8 / RANTES / TNFα: concentration in cell culture supernatant, Luminex, mean of two wells; for CD54 / CD80: flow cytometry, specific staining (MFI minus isotype control MFI). The protocol: Test compounds/candidate agents were diluted in 100% DMSO at a concentration of 10^−2M and stored in 96 well “matrix” plates at −80° C. These compound stocks were employed as a pool of mother plates. Compounds to be assayed were diluted 100 times in sterile PBS using a liquid handling robot “Evolution P3” (PerkinElmer) to a concentration of 10^−4M, and stored at −20° C. until they were used for the assay. In total, 20,000 candidate agents were tested.
10^5 THP-1 cells were incubated overnight with 10^−5M of test compound (20 μl of 10^−4M compound stock solution was added to 180 μl of the cells suspension). Incubations were carried out in U bottom 96 well tissue culture plates. Each compound was tested in duplicate. Collection of the cell culture supernatants and cell surface receptor staining were carried out using the “Biomek 2000” liquid handling robot (Becton Coulter).
Expression of cell surface receptors was analyzed by flow cytometry using the following antibodies: PE-conjugated anti-human CD80 and APC conjugated anti-human CD54 (ICAM-1) and matching labeled isotype controls, all from BD Pharmingen. Cells in the first well of each duplicate were stained with isotype controls (IC). In the second well, cells were stained with CD80 and CD54 antibodies. Stained cells were analyzed on a flow cytometer (FACSArray cytometer (BD Pharmingen)). The mean fluorescence intensity (MFI) for IC and CD80/CD54 antibodies stained cells were determined using “FlowJo” software (Tree Star, Inc.). The IC MFIs were subtracted from CD80/CD54 MFIs and results were recorded as specific staining and used for the following data analysis.
The concentrations of IL-8, RANTES and TNFα in cell culture supernatants were determined for each well of the duplicates using the “Fluorokine MultiAnalyte Profiling” kits (R&D Systems). Samples were analyzed on the Luminex 100IS system and data analysis was performed using Luminex 2.3IS software (both from Luminex corporation). The mean value of two wells was recorded and used for the following data analysis.
To identify agents that stimulate the innate immune system, a multiplex functional cell-based assay was used. The assay used human monocytes (THP-1 cell line) as target cells and expression of co-stimulatory molecules (CD54 and CD80) and immune-activating cytokines (IL-8, RANTES and TNFα) as assay readouts. These molecules play major role in the innate immune response and are required for effective activation of the adaptive immune system.

`COc1cc2c(c(OC)c1OC)-c1ccc(OC)c(=O)cc1[C@@H](NC(C)=O)CC2` [Colchicine] gave an IL-8 of 7499.42, an RANTES of 4383.62, a TNFα of 66.37 and a CD54 of 554.50. This compound showed a CD80 of 3.69.

`CN[C@H]1CCc2cc(OC)c(OC)c(OC)c2-c2ccc(OC)c(=O)cc21` [Demecolcine]: the IL-8 was found to be 2533.58, the RANTES came out at 740.62, the TNFα worked out at 95.20 and the CD54 is given as 600.87. The CD80 is on record as 4.91.

Compound `CC[C@]1(O)C[C@@H]2CN(CCc3c([nH]c4ccccc34)[C@@](C(=O)OC)(c3cc4c(cc3OC)N(C)[C@H]3[C@@](O)(C(=O)OC)[C@H](OC(C)=O)[C@]5(CC)C=CCN6CC[C@]43[C@@H]65)C2)C1` [Vinblastine] displayed an IL-8 of 6543.63, an RANTES of 4568.01, a TNFα of 78.47 and a CD54 of 665.18. The CD80 came out at 3.89.

For the compound `CC[C@]1(O)C[C@H]2CN(CCc3c([nH]c4ccccc34)[C@@](C(=O)OC)(c3cc4c(cc3OC)N(C=O)[C@H]3[C@@](O)(C(=O)OC)[C@H](OC(C)=O)[C@]5(CC)C=CCN6CC[C@]43[C@@H]65)C2)C1` [Vincristine], the IL-8 was 8334.51, the RANTES is on record as 5232.60, the TNFα is listed as 88.30 and the CD54 stood at 814.96. Besides, the CD80 is listed as 3.90.

Compound bacterial lipopolisaccharide [LPS] showed an IL-8 of 13562.99, an RANTES of 3217.60, a TNFα of 866.78 and a CD54 of 3662.56. This compound also displayed a CD80 of 64.12.
